Where a name gives a salt, the structure may show the parent alone. Each block holds one compound with its values, some of them ahead of it.
Legend:
[1] = test system: HIV; assay: Cervical vaginal (CV) tissue explant HIV infection (p24 production, AUC); assay type: cell-based
From the text: FIGS. 1A, 1B and 1C show EVG dose response plots on p24 production.

[2] = EVG concentration in CV tissues; assay type: in vitro ADME
Protocol: FIG. 2 is a graph showing EVG concentrations in infected vs. not infected CV tissues. Median concentrations and ranges (min and max) are shown. PA=Protein adjusted. […] Based on the data, it can be extrapolated that EVG tissue concentrations of >1000 ng/g provided 100% HIV prophylaxis. (FIG. 2).

[3] = test system: HSV; assay: Anti-HSV activity of tenofovir prodrugs; assay type: cell-based

EVG tissue concentration that provided 100% HIV prophylaxis ([2]; extrapolated from CV tissue data): > 1000 ng/g
median EVG concentration in CV tissues ([2]; following 4 h of exposure to 1 μg/ml of EVG): 1150 ng/g
median EVG concentration in CV tissues ([2]; following 4 h of exposure to 10 μg/ml of EVG): 13,381 ng/g
SMILES: COc1cc2c(cc1Cc1cccc(Cl)c1F)c(=O)c(C(=O)O)cn2[C@H](CO)C(C)C [EVG, elvitegravir]
% protection of mean AUC versus HIV control ([1]; Co-exposure, virus and EVG added together, EVG 0.1 μg/ml): 97.56%
% protection of mean AUC versus HIV control ([1]; Co-exposure, virus and EVG added together, EVG 1 μg/ml): 100%
% protection of mean AUC versus HIV control ([1]; Post-exposure 4 h, EVG 0.1 μg/ml): 86%
% protection of mean AUC versus HIV control ([1]; Post-exposure 4 h, EVG 1 μg/ml): 99.56%
% protection of mean AUC versus HIV control ([1]; Post-exposure 4 h, EVG 10 μg/ml): 100%
% protection of mean AUC versus HIV control ([1]; Post-exposure 9 h, EVG 0.1 μg/ml): 85.85%
% protection of mean AUC versus HIV control ([1]; Post-exposure 9 h, EVG 1 μg/ml): 100%
% protection of mean AUC versus HIV control ([1]; Post-exposure 9 h, EVG 10 μg/ml): 100%
% protection of mean AUC versus HIV control ([1]; Post-exposure 14 h, EVG 10 μg/ml): 100%
% protection of mean AUC versus HIV control ([1]; Post-exposure 24 h, EVG 10 μg/ml): 100%
% protection of mean AUC versus HIV control ([1]; Pre-exposure 0 h, EVG 0.1 μg/ml): 34.5%
% protection of mean AUC versus HIV control ([1]; Pre-exposure 0 h, EVG 1 μg/ml): 99.97%
% protection of mean AUC versus HIV control ([1]; Pre-exposure 0 h, EVG 10 μg/ml): 100%
% protection of mean AUC versus HIV control ([1]; Pre-exposure 7 h, EVG 0.1 μg/ml): 21.53%
% protection of mean AUC versus HIV control ([1]; Pre-exposure 7 h, EVG 1 μg/ml): 99.1%
% protection of mean AUC versus HIV control ([1]; Pre-exposure 7 h, EVG 10 μg/ml): 100%
% protection of mean AUC versus HIV control ([1]; Pre-exposure 24 h, EVG 0.1 μg/ml): 44.8%
% protection of mean AUC versus HIV control ([1]; Pre-exposure 24 h, EVG 1 μg/ml): 99.51%
% protection of mean AUC versus HIV control ([1]; Pre-exposure 24 h, EVG 10 μg/ml): 100%

SMILES: CC(C)OC(=O)[C@H](C)N[P@](=O)(CO[C@H](C)Cn1cnc2c(N)ncnc21)Oc1ccccc1 [TAF, tenofovir alafenamide fumarate]
activity against HSV [3]: most potent

SMILES: CC(C)OC(=O)OCOP(=O)(CO[C@H](C)Cn1cnc2c(N)ncnc21)OCOC(=O)OC(C)C [TDF, tenofovir disoproxil fumarate]
activity against HSV [3]: improved activity against HSV

SMILES: C[C@H](Cn1cnc2c(N)ncnc21)OCP(=O)(O)O [TFV, tenofovir]
activity against HSV [3]: improved activity against HSV

SMILES: Nc1nc2c(ncn2COCCO)c(=O)[nH]1 [acyclovir (ACV), acyclovir]
activity against HSV [3]: improved activity against HSV
